Experimental data taken from patent publication US20230278997A1, “BICYCLO[1.1.1]PENTANE COMPOUNDS FOR THE TREATMENT AND PROPHYLAXIS OF HEPATITIS B VIRUS INFECTION” (Hoffmann-La Roche Inc., priority 2020, published 2023).
Read-outs that look alike come from different tables or passages of the source.

How the values were obtained:
HBsAg = test: microbe, parasite or virus in culture; assay type: cell-based, HBV; conditions: Hepatitis B virus, read-out: HBsAg IC50
HBeAg = test: microbe, parasite or virus in culture; assay type: cell-based, HBV; conditions: Hepatitis B virus, read-out: HBeAg IC50
[1] = tested on: primary human hepatocyte (PHH); test: Cytotoxicity in PHH natural infection assay (Cell Counting Kit-8); assay type: cell-based; conditions: therapeutic index; CC50 by CCK8 in PHH over HBsAg IC50
Procedure: Detailed procedures regarding primary human hepatocyte (PHH) HBV natural infection assay are described as below. One tube of frozen PHH (10 million cells) was thawed in 37° C. water bath and then transferred to 20 mL of PHH thawing medium (Sigma, InVitroGRO HT Medium, Cat. 503319) with gently mixing. The cells were then centrifuged at […] for 5 min, the supernatant was discarded and the tube was refilled with 25 mL of PHH plating medium (Sigma, InVitroGRO CP Medium, Cat. 503317). The tube was shaken very gently to re-suspend all cells, and then 50 μl of cells were transferred to each well of a 384-well collagen I coated plate with appropriate liquid handling equipment, e.g. Integra VIAFLO384 or Agilent Bravo. The cells were then cultured for 24 hours in a cell incubator. For HBV infection, after PHH attachment on the culture plate, the plating medium was removed and replenished with PHH culture medium containing HBV virus. The PHH culture medium was prepared with Dulbecco's Modified Eagle Medium (DMEM)/F12 (1:1 in volume ratio) containing 10% fetal bovine serum (Gibco, Cat.10099141), 5 ng/mL human epidermal growth factor (Gibco, Cat.PHG031 IL), 20 ng/mL dexamethasone (Sigma, Cat.D4902-100 mg), 250 ng/mL human recombinant insulin (Gibco, Cat.41400045) and 100 U/mL penicillin. HBV virus at 200 genome equivalent (GE) per cell with 4% PEG8000 (Sigma, Cat.P1458) containing culture medium were added to the PHH culture medium for infection. The cells were then cultured for 24 hours in cell incubator. Then the cell culture supernatant was removed. The HBV-infected PHH were cultured with sandwich culture method with PHH culture medium containing 1% DMSO and 0.25 mg/mL matrix gel for 72 hours. The supernatant was then refreshed with PHH culture medium containing different concentrations of testing compounds for two times with 72-hour interval. At the end of treatment, the supernatant was collected for viral markers measurements, including HBsAg, HBeAg, HBV DNA and cytotoxicity. HBsAg and HBeAg were detected using alphalisa method using their specific antibodies. For HBV DNA detection, HBV DNA Quantitative Fluorescence Diagnostic Kit (Sansure Biotech Inc.) was used following the manufacture's protocol. Cytotoxicity was determined using Cell Counting Kit-8 (CCK8, Dojindo Molecular Technologies, Inc.).

[2] = Human microsome stability assay; assay type: in vitro ADME; conditions: 1 μM compound, 0.5 mg/mL microsomal protein, 37° C.; detection limit 6.15 mL/min/kg
[3] = Single dose pharmacokinetics (PK) study in male C57BL/6 mouse; assay type: in vivo; conditions: for AUC(0-t): C57BL/6, mouse plasma; for F: PO 30 mg/kg vs IV, dose normalized AUC0-last
Procedure: Single Dose Pharmacokinetics (PK) Study in Male C57BL/6 Mouse Pharmacokinetic properties of selected compounds were assessed by single dose PK studies in Male C57BL/6 mouse (vendor: Beijing Vital River Laboratory Animal Technology Co., Ltd). Briefly, two groups of animals were administered a single dose of respective compound intravenously (IV, bolus) at 1 mg/kg or orally (PO, by gavage) at 10 mg/kg or 30 mg/kg. […] After centrifugation, the resulting plasma was transferred to clean tubes for bioanalysis with LC/MS/MS. The pharmacokinetic parameters were calculated using non-compartmental analysis. The volume of distribution (Vss), half-life (T1/2) and clearance (CL) were obtained based on the plasma concentration-time curve after IV dose. The peak concentration (Cmax) was recorded directly from experimental observations after PO dose. The area under the plasma concentration-time curve (AUC0-last and AUC0-24 h) was calculated using the linear trapezoidal rule up to the last detectable concentration. The bioavailability (F) was calculated based on the dose normalized AUC0-last after IV and PO dose. The Vss of a drug represents the degree to which a drug is distributed in body tissue rather than the plasma. Vss is directly proportional with the amount of drug distributed into tissue. A higher Vss indicates a greater amount of tissue distribution.

[4] = as above; assay type: in vivo; conditions: IV dose 0.4 mg/kg
[5] = male, PO 30 mg/kg single dose, read-out: PO AUC0-24h
[6] = male, C57BL/6, plasma, mouse, IV bolus 1 mg/kg

| SMILES | IC50 (HBsAg) [µM] | IC50 (HBeAg) [µM] | TI (CC50/IC50 HBsAg) [1] | Clearance of human microsome [2] [mL/min/kg] | AUC(0-t) [3, 5] [µg·h/mL] | F ([3]; mouse) [%] | AUC(0-t) ([4]; C57BL/6, mouse plasma, AUC value is dose-normalized, read-out: IV AUC0-24h) [µg·h/mL] | clearance ([4]; C57BL/6, plasma, mouse) [mL/min/kg] | half-life ([4]; C57BL/6, plasma, mouse) [h] | Vd ([4]; C57BL/6, plasma, mouse, read-out: VSS) [L/kg] | clearance [3, 6] [mL/min/kg] | half-life [3, 6] [h] | Vd ([3]; male, C57BL/6, plasma, mouse, IV bolus 1 mg/kg, read-out: VSS) [L/kg] | AUC(0-t) ([3]; male, IV bolus 1 mg/kg, read-out: IV AUC0-24h) [µg·h/mL] |
| --- | --- | --- | --- | --- | --- | --- | --- | --- | --- | --- | --- | --- | --- | --- |
| CS(=O)(=O)C1(c2nsc(C(=O)NC34CC(c5nc(-c6ccc(Cl)cc6)no5)(C3)C4)n2)CC1 [Example 34, N-[3-[3-(4-chlorophenyl)-1,2,4-oxadiazol-5-yl]-1-bicyclo[1.1.1]pentanyl]-3-(1-methylsulfonylcyclopropyl)-1,2,4-thiadiazole-5-carboxamide] | 0.02 | 0.02 | 181.50 | ≤6.15 | 270 | 39 | 24.2 | 0.03 | > 40 | 0.93 |  |  |  |  |
| CS(=O)(=O)C1(c2nsc(C(=O)NC34CC(c5cnn(-c6ccc(Cl)cc6)n5)(C3)C4)n2)CC1 [Example 60, N-[3-[2-(4-chlorophenyl)triazol-4-yl]-1-bicyclo[1.1.1]pentanyl]-3-(1-methylsulfonylcyclopropyl)-1,2,4-thiadiazole-5-carboxamide] | 0.017 | 0.017 | 261.76 | ≤6.15 | 154 | 14 |  |  |  |  | 0.1 | 62.4 | 0.55 | 38.1 |
